Activity calls are given as the source filed them.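 Rule for the calls: active = fitted curve reaches 40% activation below the top valid tested dose, in every test run; inconclusive = test runs disagree on the call; inactive = the rest, including effects opposite to the expected direction.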
Experiment: E-selectin inducers in HUVECs, dose response, imaging, HUVEC, cherry-picked samples (AID 977605);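 note: signal is the share of imaged cells scored positive for E-selectin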
Conditions: HUVEC E-selectin immunostaining, at 19.5 µM (top of the series)
With `CN1CCN(c2cn[nH]c(=O)c2Cl)CC1` the activation was -0.235% (inactive).

Same assay, conditions: HUVEC E-selectin immunostaining, at 19.5 µM (top of the series), percent of TNF-alpha response over vehicle
For `Cc1ccccc1NC(=O)c1cc(S(=O)(=O)Nc2cccc(C(=O)O)c2)ccc1Cl`, the activation was 0.3% (inactive). For `Cc1noc(C)c1S(=O)(=O)Nc1ccc2c(c1)C(=O)N([C@H](C)CO)C[C@@H](C)[C@H](CN(C)Cc1ccc3c(c1)OCO3)O2`, the activation was -0.134% (inactive). For `C[C@@H]1CN([C@H](C)CO)C(=O)c2cccc(NC(=O)C3CCOCC3)c2O[C@@H]1CN(C)Cc1ccc(Oc2ccccc2)cc1`, the activation was 0.031% (inactive). With `C[C@@H]1CN([C@H](C)CO)C(=O)c2cc(N(C)C)ccc2O[C@@H]1CN(C)C(=O)Nc1ccc2c(c1)OCO2` the activation was 0.018% (inactive). With `C[C@H]1CN([C@@H](C)CO)C(=O)c2cccc(NC(=O)c3ccc(-c4nccs4)cc3)c2O[C@@H]1CN(C)Cc1ccc(Cl)c(Cl)c1` the activation was 4.07% (inactive). For `COc1ccccc1CSc1nc2c(c(=O)n(C)c(=O)n2C)n1C`, the activation was -0.003% (inactive). With `CCc1ccc(N2CC(C(=O)Nc3ccc(F)cc3)CC2=O)cc1` (stereo unspecified) the activation was 0.132% (inactive). In the case of `CCn1c(SCC(=O)N(C)Cc2ccc(OC)c(F)c2)nc2cc(S(N)(=O)=O)ccc21`, the activation is reported as -0.113% (inactive). In the case of `C[C@@H]1CN([C@H](C)CO)C(=O)c2cccc(NC(=O)Nc3ccc(F)cc3)c2O[C@H]1CN(C)Cc1ccncc1`, the activation is reported as -0.015% (inactive). For `C[C@@H]1CN([C@H](C)CO)C(=O)c2cccc(NC(=O)C3CC3)c2O[C@@H]1CN(C)CC1CC1`, the activation was -0.106% (inactive). In the case of `Cc1ccc(C(=O)NNC(=O)CSc2nnc(CNc3ccc(F)cc3)n2C)cc1`, the activation is reported as -0.046% (inactive). For `C/C=C/c1ccc2c(c1)O[C@H](CN(C)C(=O)CC)[C@@H](C)CN([C@H](C)CO)S2(=O)=O`, the activation was 25.5% (inactive). With `Cc1ccc(S(=O)(=O)Nc2cc(-c3ccccc3)nn2C)cc1Cl` the activation was -0.007% (inactive). For `Cc1noc(C)c1NC(=O)N(C)C[C@H]1Oc2ccc(NS(=O)(=O)c3cccs3)cc2C(=O)N([C@H](C)CO)C[C@H]1C`, the activation was -0.05% (inactive). In the case of `COc1cccc(CCC(=O)N2CCC(n3nccc3NC(=O)CC(C)C)CC2)c1`, the activation is reported as -0.002% (inactive). In the case of `C[C@@H]1CN([C@@H](C)CO)C(=O)Cc2cc(NC(=O)Nc3ccc(F)cc3)ccc2O[C@H]1CN(C)S(=O)(=O)c1ccccc1`, the activation is reported as -0.074% (inactive). In the case of `C/C(=N\NC(=O)C1CC1)c1ccc(Cl)cc1`, the activation is reported as -0.246% (inactive). For `NC(=O)C1CCN(c2nc(-c3ccccc3-c3ccccc3)cs2)CC1`, the activation was 0.136% (inactive). In the case of `C[C@@H]1CN([C@@H](C)CO)C(=O)Cc2cc(NS(=O)(=O)c3ccc(F)cc3)ccc2O[C@H]1CN(C)S(=O)(=O)c1ccc(Cl)cc1`, the activation is reported as -0.127% (inactive). In the case of `C[C@H](CO)N1C[C@H](C)[C@H](CN(C)S(=O)(=O)c2ccc(Cl)cc2)Oc2c(NC(=O)C3CCCCC3)cccc2C1=O`, the activation is reported as 0.576% (inactive). With `CN(C)CCN1CCN(C2CN(Cc3cn(Cc4ccc(C(F)(F)F)cc4)nn3)S(=O)(=O)C2)CC1` (stereo unspecified) the activation was 1.57% (inactive). With `CCCN1[C@H](CO)[C@H](c2ccc(C#Cc3ccccc3)cc2)[C@@H]1CNC1CCCC1` the activation was 4.52% (inactive). In the case of `C[C@H](CO)N1C[C@H](C)[C@@H](CN(C)C(=O)NC2CCCCC2)Oc2c(NC(=O)Nc3ccc(F)cc3)cccc2C1=O`, the activation is reported as 0.219% (inactive). With `C[C@@H]1CN([C@@H](C)CO)C(=O)c2cccc(NC(=O)c3ccc(-c4nccs4)cc3)c2O[C@@H]1CN(C)Cc1ccc(Cl)c(Cl)c1` the activation was 0.039% (inactive). With `C[C@H](CO)N1C[C@H](C)[C@H](CN(C)C(=O)Nc2cccc3ccccc23)Oc2ccc(NS(C)(=O)=O)cc2C1=O` the activation was 0.267% (inactive). In the case of `CC(C)NC(=O)N(C)C[C@@H]1Oc2ccc(NS(=O)(=O)c3cccs3)cc2CC(=O)N([C@@H](C)CO)C[C@H]1C`, the activation is reported as 0.096% (inactive). In the case of `CN(C)C1(CNC(=O)C2CCN(S(=O)(=O)c3cc(Cl)ccc3Cl)CC2)CCCCC1`, the activation is reported as -0.207% (inactive). With `C[C@H]1CN([C@@H](C)CO)C(=O)c2cccc(NC(=O)Nc3ccc(F)cc3)c2O[C@H]1CN(C)Cc1ccncc1` the activation was 0.058% (inactive). With `COc1ccc(S(=O)(=O)Nc2cccc3c2O[C@H](CN(C)C(=O)Nc2c(C)noc2C)[C@H](C)CN([C@@H](C)CO)C3=O)cc1` the activation was -0.052% (inactive). With `Cc1ccccc1N(CC(=O)NC1CCCCC1)C(=O)CNC(=O)c1cccs1` the activation was 0.744% (inactive). In the case of `C[C@H](CO)N1C[C@H](C)[C@H](CN(C)C(=O)Nc2ccccc2)Oc2c(NS(=O)(=O)c3cccs3)cccc2C1=O`, the activation is reported as -0.044% (inactive). In the case of `C[C@H]1CN([C@@H](C)CO)C(=O)Cc2cc(NC(=O)C3CC3)ccc2O[C@@H]1CN(C)S(=O)(=O)c1cccs1`, the activation is reported as -0.038% (inactive). In the case of `C/C(=N\NC(=O)c1cc(C(C)C)[nH]n1)c1ccco1`, the activation is reported as 0.133% (inactive). In the case of `CCC(=O)c1ccc(OCC(=O)NNC(=O)c2cc(C)oc2C)cc1`, the activation is reported as -0.03% (inactive). In the case of `COc1ccc(CNS(=O)(=O)c2ccc3c(c2)C(C)(C)C(=O)N3C)cc1`, the activation is reported as 0.021% (inactive). With `O=C(CN(C(=O)c1csnn1)c1ccc2c(c1)OCCO2)NCc1ccc(F)cc1` the activation was -0.09% (inactive). With `Cc1noc(C)c1S(=O)(=O)Nc1ccc2c(c1)C(=O)N([C@@H](C)CO)C[C@H](C)[C@H](CN(C)Cc1ccc3c(c1)OCO3)O2` the activation was -0.065% (inactive). With `COc1ccccc1CN1CC(C(=O)N(C)Cc2[nH]c3ccccc3c2C)CCC1=O` (stereo unspecified) the activation was 0.071% (inactive). With `CCN(CC)c1ccc(S(=O)(=O)N2CCOCC2)cc1NC(=O)CN1C(=O)NC2(CCCC2)C1=O` the activation was 4.54% (inactive). For `CC(=O)Nc1ccc(NC(=O)COc2ccc(Cl)cc2Cl)cc1`, the activation was -0.194% (inactive). For `Cc1[nH]c(=O)c(C#N)cc1-c1ccncc1`, the activation was -0.055% (inactive). In the case of `O=C(NCc1ccccc1)C(c1ccc(C(F)(F)F)cc1)N1CCN(CCN2CCOCC2)CC1` (stereo unspecified), the activation is reported as 6.03% (inactive). For `C[C@H]1CN([C@@H](C)CO)C(=O)c2cccc(NC(=O)c3nc4ccccc4s3)c2O[C@@H]1CN(C)Cc1ccc(C(F)(F)F)cc1`, the activation was -0.231% (inactive). In the case of `COc1ccc(CN(C)C[C@@H]2Oc3ccc(NC(=O)Nc4ccc(F)cc4)cc3CC(=O)N([C@H](C)CO)C[C@@H]2C)cc1`, the activation is reported as -0.068% (inactive). In the case of `CC(C)OC(=O)c1cccnc1N1CCN(c2cccc(Cl)c2)CC1`, the activation is reported as 0.039% (inactive). With `C[C@@H]1CN([C@H](C)CO)C(=O)Cc2cc(NC(=O)Nc3ccc(F)cc3)ccc2O[C@H]1CN(C)S(=O)(=O)c1ccc(Cl)cc1` the activation was 0.054% (inactive). With `COc1ccc(NC(=O)N(C)C[C@@H]2Oc3c(NS(=O)(=O)c4cn(C)cn4)cccc3C(=O)N([C@@H](C)CO)C[C@H]2C)cc1` the activation was -0.199% (inactive). For `C[C@H](CO)N1C[C@H](C)[C@H](CN(C)CC2CCCCC2)Oc2ccc(NC(=O)Nc3ccc4c(c3)OCO4)cc2C1=O`, the activation was -0.185% (inactive). In the case of `C[C@H](CO)N1C[C@H](C)[C@H](CN(C)C)Oc2ccc(NC(=O)Cc3cn(C)c4ccccc34)cc2C1=O`, the activation is reported as 8.16% (inactive). With `COc1ccccc1-c1c(C)nn2c(NCCN3CCCC3)cc(C)nc12` the activation was 0.061% (inactive). In the case of `CC(C)(C)c1cc(CCC(=O)NCc2ccccn2)cc(C(C)(C)C)c1O`, the activation is reported as -0.086% (inactive). In the case of `CN(C)c1cccc(C(=O)NCc2ccc3c(c2)OCO3)c1`, the activation is reported as 8.26% (inactive). In the case of `COc1ccc(CN(C)C[C@H]2Oc3c(NC(=O)c4cnccn4)cccc3C(=O)N([C@H](C)CO)C[C@@H]2C)cc1`, the activation is reported as 0.248% (inactive). For `Cc1ccc(CCNC(=O)C2CCC(CNc3c(N4CCC(C)CC4)c(=O)c3=O)CC2)cc1` (stereo unspecified), the activation was -0.022% (inactive). For `COc1cc(CC2C(=O)Nc3ccccc32)cc(C)c1O` (stereo unspecified), the activation was 36.1% (inactive). For `C[C@@H]1CN([C@@H](C)CO)C(=O)Cc2cc(NC(=O)c3ccncc3)ccc2O[C@H]1CN(C)Cc1ccc(Oc2ccccc2)cc1`, the activation was 0.031% (inactive). For `O=S(=O)(NCc1csc(-c2cccs2)n1)c1ccc(Cl)cc1`, the activation was 0.045% (inactive). For `C[C@H](CO)N1C[C@H](C)[C@H](CN(C)C(=O)Nc2ccccc2)Oc2ccc(NS(C)(=O)=O)cc2C1=O`, the activation was -0.163% (inactive). With `COc1ccc(CN(C)C[C@@H]2Oc3ccc(NC(=O)c4ccncc4)cc3C(=O)N([C@@H](C)CO)C[C@H]2C)cc1` the activation was 19.2% (inactive). In the case of `C[C@H](CO)N1C[C@H](C)[C@H](CN(C)Cc2ccc(Cl)c(Cl)c2)Oc2ccc(NS(=O)(=O)c3cccs3)cc2C1=O`, the activation is reported as 0.328% (inactive).

Same assay, conditions: HUVEC E-selectin immunostaining, at 21 µM (top of the series), percent of TNF-alpha response over vehicle
With `C[C@H](CO)N1C[C@H](C)[C@H](CN(C)S(=O)(=O)c2ccccc2)Oc2c(NC(=O)C3CCOCC3)cccc2C1=O` the activation was 3.15% (inactive). For `CC(C)NC(=O)Nc1cccc2c1O[C@@H](CN(C)Cc1ccc(Cl)c(Cl)c1)[C@@H](C)CN([C@H](C)CO)C2=O`, the activation was 7.29% (inactive). For `COc1ccc(S(=O)(=O)Nc2cccc3c2O[C@H](CN(C)C(=O)Nc2c(C)noc2C)[C@@H](C)CN([C@@H](C)CO)C3=O)cc1`, the activation was -0.092% (inactive). For `C[C@@H]1CN([C@H](C)CO)C(=O)c2cccc(NC(=O)C3CCOCC3)c2O[C@H]1CN(C)C(=O)Nc1ccccc1`, the activation was -0.271% (inactive). In the case of `COc1ccc(S(=O)(=O)Nc2ccc3c(c2)CC(=O)N([C@@H](C)CO)C[C@@H](C)[C@@H](CN(C)C(=O)NC2CCCCC2)O3)cc1`, the activation is reported as -0.169% (inactive). In the case of `Cc1noc(C)c1NC(=O)N(C)C[C@@H]1Oc2ccc(NS(=O)(=O)c3cccs3)cc2CC(=O)N([C@H](C)CO)C[C@@H]1C`, the activation is reported as 10.8% (inactive). In the case of `C[C@H](CO)N1C[C@H](C)[C@H](CN(C)C(=O)c2ccccc2)OCc2ccccc2-c2c(n(C)c3ccccc23)C1=O`, the activation is reported as -0.093% (inactive). For `C[C@@H]1CN([C@H](C)CO)C(=O)c2cc(NS(=O)(=O)c3cn(C)cn3)ccc2O[C@H]1CN(C)Cc1ccncc1`, the activation was -0.069% (inactive). In the case of `C[C@@H]1CN([C@H](C)CO)C(=O)c2cccc(NC(=O)Nc3ccc4c(c3)OCO4)c2O[C@H]1CN(C)C(=O)Nc1ccc(C(F)(F)F)cc1`, the activation is reported as 0.262% (inactive). In the case of `CC(C)NC(=O)N(C)C[C@H]1Oc2ccc(NC(=O)CCN3CCOCC3)cc2C(=O)N([C@H](C)CO)C[C@@H]1C`, the activation is reported as 0.008% (inactive).
